# Laboratory results published in USRE39591E1, “6-O-substituted ketolides having antibacterial activity” (Abbott Laboratories, priority 1996, dated 2007).
# Test system: up to 32 different microorganisms
# Experiment: in vitro antibacterial activity (MIC), agar dilution on Brain Heart Infusion (BHI) agar with Steers replicator
# Format: cell-based
# Conditions: unit assumed
# Method: Representative compounds of the present invention were assayed in vitro for antibacterial activity as follows: Twelve petri dishes containing successive aqueous dilutions of the test compound mixed with 10 mL of sterilized Brain Heart Infusion (BHI) agar (Difco 0148-01-5) were prepared. Each plate was inoculated with 1:100 (or 1:10 for slow-growing strains, such as Micrococcus and Streptococcus) dilutions of up to 32 different microorganisms, using a Steers replicator block. The inoculated plates were incubated at 35°-37° C. for 20 to 24 hours. In addition, a control plate, using BHI agar containing no test compound, was prepared and incubated at the beginning and end of each test.
# An additional plate containing a compound having known susceptibility patterns for the organisms being tested and belonging to the same antibiotic class as the test compound was also prepared and incubated as a further control, as well as to provide test-to-test comparability. Erythromycin A was used for this purpose.
# After incubation, each plate was visually inspected. The minimum inhibitory concentration (MIC) was defined as the lowest concentration of drug yielding no growth, a slight haze, or sparsely isolated colonies on the inoculum spot as compared to the growth control.
SMILES,MIC (organism code AA) [µg/mL],MIC (organism code BB) [µg/mL],MIC (organism code CC) [µg/mL],MIC (organism code DD) [µg/mL],MIC (organism code EE) [µg/mL],MIC (organism code FF) [µg/mL],MIC (organism code GG) [µg/mL],MIC (organism code HH) [µg/mL],MIC (organism code II) [µg/mL],MIC (organism code JJ) [µg/mL],MIC (organism code KK) [µg/mL],MIC (organism code LL) [µg/mL],MIC (organism code MM) [µg/mL],MIC (organism code NN) [µg/mL],MIC (organism code OO) [µg/mL],MIC (organism code PP) [µg/mL],MIC (organism code QQ) [µg/mL],MIC (organism code RR) [µg/mL],MIC (organism code SS) [µg/mL],MIC (organism code TT) [µg/mL],further results
"CCC1OC(=O)C(C)C(=O)C(C)C(OC2OC(C)CC(N(C)C)C2O)C(C)(OCC=Cc2ccc3ncc(-c4cccs4)cc3c2)CC(C)C(=O)C(C)C2NC(=O)OC12C (stereo not drawn) [Example 275, Compound of Formula (IX): L is CO, T is NH2, R is —CH2CH═CH-(3-(2-thiphenyl)-6-quinolyl)]",0.2,0.2,> 100,0.2,0.2,0.2,> 100,0.2,0.1,0.01,0.05,0.02,12.5,0.2,0.02,0.2,> 100,0.78,> 100,> 100,MIC (organism code UU): 0.39 µg/mL; MIC (organism code VV): 0.2 µg/mL; MIC (organism code WW): 8 µg/mL; MIC (organism code XX): 0.03 µg/mL; MIC (organism code YY): 0.03 µg/mL; MIC (organism code ZZ): 4 µg/mL; MIC (organism code ZZA): 0.5 µg/mL
"CC[C@H]1OC(=O)[C@H](C)C(=O)[C@H](C)[C@@H](O[C@@H]2O[C@H](C)C[C@H](N(C)C)[C@H]2O)[C@@](C)(OCCNCCCc2ccccc2)C[C@@H](C)C(=O)[C@H](C)[C@H]2NC(=O)O[C@@]21C [Example 223, Compound of Formula (IX): L is CO, T is NH, R is —CH2CH2NHCH2CH2CH2Phenyl]",0.2,0.1,> 100,0.2,0.2,0.2,> 100,0.39,0.05,≤ 0.005,≤ 0.005,≤ 0.005,> 100,0.1,0.05,0.2,50,0.2,100,> 100,MIC (organism code UU): 3.1 µg/mL; MIC (organism code VV): 0.2 µg/mL; MIC (organism code WW): 4 µg/mL; MIC (organism code XX): 0.03 µg/mL; MIC (organism code YY): 0.03 µg/mL; MIC (organism code ZZ): > 128 µg/mL; MIC (organism code ZZA): 0.5 µg/mL
"CCC1OC(=O)C(C)C(=O)C(C)C(OC2OC(C)CC(N(C)C)C2O)C(C)(OCC=Cc2ccc3cc(OC)ccc3c2)CC(C)C(=O)C(C)C2NC(=O)OC12C (stereo not drawn) [Example 283, Compound of Formula (IX): L is CO, T is NH2, R is —CH2CH═CH-(6-methoxy-2-naphthyl)]",0.1,0.1,100,0.1,0.1,0.1,50,0.2,0.05,0.01,0.02,≤ 0.005,3.1,0.2,0.01,0.2,> 100,0.78,> 100,> 100,MIC (organism code UU): 0.39 µg/mL; MIC (organism code VV): 0.2 µg/mL; MIC (organism code WW): 2 µg/mL; MIC (organism code XX): ≤ 0.004 µg/mL; MIC (organism code YY): ≤ 0.004 µg/mL; MIC (organism code ZZ): 4 µg/mL; MIC (organism code ZZA): 0.125 µg/mL
"CCC1OC(=O)C(C)C(=O)C(C)C(OC2OC(C)CC(N(C)C)C2O)C(C)(OCC=Cc2cnc3ccc(C(=O)OC)cc3c2)CC(C)C(=O)C(C)C2NC(=O)OC12C (stereo not drawn) [Example 216, R is —CH2CH═CH-(6-methoxycarbonyl-3-quinolyl)]",0.2,0.2,> 100,0.2,0.2,0.2,> 100,0.2,0.05,0.01,0.02,0.02,0.78,0.2,0.05,0.1,100,0.39,> 100,> 100,MIC (organism code UU): 0.78 µg/mL; MIC (organism code VV): 0.1 µg/mL; MIC (organism code WW): 2 µg/mL; MIC (organism code XX): 0.015 µg/mL; MIC (organism code YY): 0.015 µg/mL; MIC (organism code ZZ): 0.5 µg/mL; MIC (organism code ZZA): 0.25 µg/mL
"CCC1OC(=O)C(C)C(=O)C(C)C(OC2OC(C)CC(N(C)C)C2O)C(C)(OCC=Cc2cc(Cl)cc(Cl)c2)CC(C)C(=O)C(C)C2NC(=O)OC12C (stereo not drawn) [Example 284, Compound of Formula (IX): L is CO, T is NH2, R is —CH2CH═CH-(3,5-dichlorophenyl)]",0.2,0.2,50,0.2,0.2,0.2,50,0.2,0.05,0.02,0.02,≤ 0.005,25,0.2,0.05,0.2,> 100,1.56,> 100,50,MIC (organism code UU): 0.2 µg/mL; MIC (organism code VV): 0.78 µg/mL; MIC (organism code WW): 4 µg/mL; MIC (organism code XX): 0.03 µg/mL; MIC (organism code YY): 0.03 µg/mL; MIC (organism code ZZ): 32 µg/mL; MIC (organism code ZZA): 0.25 µg/mL
"CC[C@H]1OC(=O)[C@H](C)C(=O)[C@H](C)[C@@H](O[C@@H]2O[C@H](C)C[C@H](N(C)C)[C@H]2O)[C@@](C)(OCC=NOCc2ccccc2)C[C@@H](C)C(=O)[C@H](C)[C@H]2NC(=O)O[C@@]21C [Example 229, Compound of Formula (IX): L is CO, T is NH, R is —CH2CH═NOCH2(phenyl)]",0.2,0.2,> 100,0.2,0.2,0.2,> 100,0.2,0.05,≤ 0.005,0.02,0.01,50,0.2,0.02,0.05,> 100,0.39,> 100,> 100,MIC (organism code UU): 1.56 µg/mL; MIC (organism code VV): 0.2 µg/mL; MIC (organism code WW): 2 µg/mL; MIC (organism code XX): ≤ 0.004 µg/mL; MIC (organism code YY): ≤ 0.004 µg/mL; MIC (organism code ZZ): > 128 µg/mL; MIC (organism code ZZA): 0.125 µg/mL
